Assay results taken from EP0542549A1, “Use of cosmetic composition” (UNILEVER PLC, priority 1991, dated 1993).

Test system: pig skin stratum corneum
Assay: In vitro measurement of stratum corneum extensibility (linear extensometer)
Details: 44% relative humidity; for Extensibility ratio: ratio of force/extension slopes before and after treatment, 2% extension at 20mm/min, application 4µl/cm² (25ng), mean ± standard deviation, ratio >1 = increased extensibility
Description: The benefits of the composition following topical application to skin can be quantified by in vitro measurements employing pig skin and an extensometer, in accordance with the following procedure.
Pig skin was selected for this evaluation and this was first cleaned with an aqueous ethanol-chlorohexidine solution (15 : 75 : 10:, Hibitane; ICI Pharmaceuticals). Hairs were removed by clipping followed by depilation with commercially-available thioglycolate cream (Immac : Whitehall Laboratories) and 0.4mm thick slices of skin were removed using a Davies electric skin dermatome. Stratum corneum was isolated by incubating strips of skin, dermis side down, into a solution of trypsin (0.25g% Flow Laboratories) and phosphate-buffered saline (PBS) comprising 137mM NaCl; 2.68mM KCl; 8.1mM NaHPO₄; 1.47mM KH₂PO₄ at pH 7.4 for 2-4h at 37°C. The dermis was separated from the epidermis using forceps and the latter was incubated in fresh trypsin-PBS solution overnight at 4°C. The enzyme solution was changed several times on the following day before the stratum corneum was washed with sonication (Lucas Dawe Ultrasonics; bath sonicleaner) and three changes of PBS to remove trypsin and residual cells. The corneum was then washed with distilled water containing 0.02% sodium azide (to inhibit bacterial growth) before floating onto fluorocarbon filter (Spectra-mesh; 149µ mesh). After drying at ambient temperature and humidity the sheets of corneum were cut into rectangular strips measuring 1 x 2.5cm. The pieces of corneum were mounted at each end with plastic tape (Flow tape; Flow Laboratories) and a 6mm hole was punched into the centre of each tab. During this whole procedure the orientation of the stratum corneum was maintained to ensure samples were treated on their external surfaces only in subsequent experiments. Samples were stored in petri-dishes at ambient humidity and temperature until required. […]
The extensibility of pig skin stratum corneum was measured following treatment with ω-(O-linoleoyl)ceramide having the structure (12), as herein defined. […]

Row | SMILES | Extensibility ratio | extensibility ratio compared with hydrolysed ceramide structure (12) or linoleate (students t test, significance at the 5% level, 4µl/cm² (25ng))
1 | CCCCC/C=C\C/C=C\CCCCCCCC(=O)O [Linoleate, reference compound] | 1.29 ± 0.16 | –
2 | CCCCC/C=C\C/C=C\CCCCCCCC(=O)OCCCCCCCCCCCCCCCCCCCCCC(=O)NC(CO)C(O)C=CCCCCCCCCCCCCC (stereo not drawn) [Ceramide structure (12), ω-(O-linoleoyl)ceramide] | 2.11 ± 0.45 | significantly greater
